ChEMBL document CHEMBL1944516, “Novel hybrid molecules based on 15-membered azalide as potential antimalarial agents” (Eur J Med Chem, 2012)
In brackets after ≈: the same amount, converted by molar mass.

Assays:
Staphylococcus aureus = assay: Antibacterial activity against Staphylococcus aureus ATCC 13709 by broth microdilution method; format: functional
Streptococcus pneumoniae = assay: Antibacterial activity against clinical isolate Streptococcus pneumoniae SP030; format: functional
Streptococcus pyogenes = assay: Antibacterial activity against clinical isolate Streptococcus pyogenes 3565; format: functional
Moraxella catarrhalis = assay: Antibacterial activity against Moraxella catarrhalis ATCC 23246 by broth microdilution method; format: functional
Haemophilus influenzae = assay: Antibacterial activity against Haemophilus influenzae ATCC 49247 by broth microdilution method; format: functional
Plasmodium falciparum [1] = assay: Antimalarial activity against chloroquine-sensitive Plasmodium falciparum 3D7A infected in human A-positive erythrocytes assessed as inhibition of [3H]-hypoxanthine incorporation after 48 hrs by semi-automated microdilution technique; format: functional, organism-based
Plasmodium falciparum [2] = assay: Antimalarial activity against chloroquine and pyrimethamine-resistant Plasmodium falciparum W2 infected in human A-positive erythrocytes assessed as inhibition of [3H]-hypoxanthine incorporation after 48 hrs by semi-automated microdilution technique; format: functional, organism-based
HepG2 = assay: Cytotoxicity against human HepG2 cells after 24 hrs by MTS assay; format: cell-based; conditions: HepG2, 24 h
Plasmodium falciparum [3] = assay: Ratio of azithromycin IC50 to compound IC50 for chloroquine-sensitive Plasmodium falciparum 3D7A; format: functional
Plasmodium falciparum [4] = assay: Ratio of azithromycin IC50 to compound IC50 for chloroquine and pyrimethamine-resistant Plasmodium falciparum W2; format: functional
Plasmodium falciparum [5] = assay: Ratio of chloroquine IC50 to compound IC50 for […] Plasmodium falciparum W2; format: functional
[6] = Ratio of drug level in blood to plasma of CD1 mouse at 12.5 mg/kg, iv and 12.5 mg/kg, po by LC-MS/Ms analysis; format: ADME, organism-based
Liver = assay: Intrinsic clearance in mouse liver microsomes assessed per gram of liver at 1 uM after 60 mins by LC-MS/Ms analysis; format: ADME, Microsome; conditions: 1 h
Liver microsomes [7] = assay: Intrinsic clearance in rat liver microsomes assessed per gram of liver at 1 uM after 60 mins by LC-MS/Ms analysis; format: ADME, Microsome; conditions: 1 h
Liver microsomes [8] = assay: Intrinsic clearance in human liver microsomes assessed per gram of liver at 1 uM after 60 mins by LC-MS/Ms analysis; format: ADME, Microsome; conditions: 1 h
[9] = Clearance in CD1 mouse at 12.5 mg/kg, iv and 12.5 mg/kg, po by LC-MS/Ms analysis; format: ADME, organism-based; conditions: in vivo
[10] = Volume of distribution at steady state in CD1 mouse at 12.5 mg/kg, iv and 12.5 mg/kg, po by LC-MS/Ms analysis; format: ADME, organism-based; conditions: in vivo, read-out: Vdss
[11] = Half life in CD1 mouse at 12.5 mg/kg, iv and 12.5 mg/kg, po by LC-MS/Ms analysis; format: ADME, organism-based; conditions: in vivo
Mus musculus = assay: Dose normalized AUC in CD1 mouse at 12.5 mg/kg, po by LC-MS/Ms analysis; format: ADME, organism-based; parameters: dose 12.5 mg/kg, route oral; conditions: in vivo
[12] = Oral bioavailability in CD1 mouse at 12.5 mg/kg by LC-MS/Ms analysis; format: ADME, organism-based; conditions: in vivo

Row | Compound | MIC (Staphylococcus aureus) | MIC (Streptococcus pneumoniae) | MIC (Streptococcus pyogenes) | MIC (Moraxella catarrhalis) | MIC (Haemophilus influenzae) | IC50 (Plasmodium falciparum [1]) | IC50 (Plasmodium falciparum [2]) | IC50 (HepG2) | Ratio IC50 (Plasmodium falciparum [3]) | Ratio IC50 (Plasmodium falciparum [4]) | Ratio IC50 (Plasmodium falciparum [5]) | blood plasma ratio [6] | CLint (Liver) | CLint (Liver microsomes [7]) | CLint (Liver microsomes [8]) | clearance [9] | Vd [10] | half-life [11] | AUC/dose (Mus musculus) | bioavailability [12]
1 | CC[C@H]1OC(=O)[C@H](C)[C@@H](O[C@H]2C[C@@](C)(OC)[C@@H](O)[C@H](C)O2)[C@H](C)[C@@H](O[C@@H]2O[C@H](C)C[C@H](N(C)C)[C@H]2O)[C@](C)(O)C[C@@H](C)CN(C)[C@H](C)[C@@H](O)[C@]1(C)O [AZITHROMYCIN] | 1 µg/mL (≈ 1.34 µM) | 0.06 µg/mL (≈ 0.0801 µM) | 0.125 µg/mL (≈ 0.167 µM) | 0.06 µg/mL (≈ 0.0801 µM) | 2 µg/mL (≈ 2.67 µM) | 11500 nM | 2680 nM | 203000 nM | – | – | – | – | – | – | – | – | – | – | – | –
2 | CC[C@H]1OC(=O)[C@H](C)[C@@H](O)[C@H](C)[C@@H](O[C@@H]2O[C@H](C)C[C@H](N(C)CCCNC(=O)CCCNc3ccnc4cc(Cl)ccc34)[C@H]2O)[C@](C)(O)C[C@@H](C)CN(C)[C@H](C)[C@@H](O)[C@]1(C)O | > 64 µg/mL | > 64 µg/mL | > 64 µg/mL | > 64 µg/mL | > 64 µg/mL | 636 nM | 295 nM | > 50000 nM | 9 | 9 | – | – | – | – | – | – | – | – | – | –
3 | CC[C@H]1OC(=O)[C@H](C)[C@@H](O[C@H]2C[C@@](C)(OC)[C@@H](O)[C@H](C)O2)[C@H](C)[C@@H](O[C@@H]2O[C@H](C)C[C@H](N(C)C(=O)CCCNc3ccnc4cc(Cl)ccc34)[C@H]2O)[C@](C)(O)C[C@@H](C)CN(C)[C@H](C)[C@@H](O)[C@]1(C)O | > 64 µg/mL | 8 µg/mL (≈ 8.15 µM) | 16 µg/mL (≈ 16.3 µM) | 4 µg/mL (≈ 4.07 µM) | > 64 µg/mL | 104 nM | 93 nM | > 50000 nM | 111 | 29 | 5 | – | – | – | – | – | – | – | – | –
4 | CC[C@H]1OC(=O)[C@H](C)[C@@H](O)[C@H](C)[C@@H](O[C@@H]2O[C@H](C)C[C@H](N(C)CCCNc3ccnc4cc(Cl)ccc34)[C@H]2O)[C@](C)(O)C[C@@H](C)CN(C)[C@H](C)[C@@H](O)[C@]1(C)O | > 64 µg/mL | > 64 µg/mL | > 64 µg/mL | 32 µg/mL (≈ 40.2 µM) | > 64 µg/mL | – | – | 14000 nM | – | – | – | – | – | – | – | – | – | – | – | –
5 | CC[C@H]1OC(=O)[C@H](C)[C@@H](O[C@H]2C[C@@](C)(OC)[C@@H](O)[C@H](C)O2)[C@H](C)[C@@H](O[C@@H]2O[C@H](C)C[C@H](N(C)CCCNC(=O)CCCNc3ccnc4cc(Cl)ccc34)[C@H]2O)[C@](C)(O)C[C@@H](C)CN(C)[C@H](C)[C@@H](O)[C@]1(C)O | > 64 µg/mL | 4 µg/mL (≈ 3.85 µM) | 16 µg/mL (≈ 15.4 µM) | 4 µg/mL (≈ 3.85 µM) | > 64 µg/mL | 77 nM | 48 nM | > 50000 nM | 56 | 150 | 9 | 1 | < 0.6 mL/min/g | < 0.6 mL/min/g | < 0.6 mL/min/g | 47.7 mL/min/kg | 116 L/kg | 63.9 h | 13.28 ng·h/mL | 5%
6 | CC[C@H]1OC(=O)[C@H](C)[C@@H](O[C@H]2C[C@@](C)(OC)[C@@H](O)[C@H](C)O2)[C@H](C)[C@@H](O[C@@H]2O[C@H](C)C[C@H](N(C)C(=O)CNc3ccnc4cc(Cl)ccc34)[C@H]2O)[C@](C)(O)C[C@@H](C)CN(C)[C@H](C)[C@@H](O)[C@]1(C)O | 16 µg/mL (≈ 16.8 µM) | 2 µg/mL (≈ 2.1 µM) | 4 µg/mL (≈ 4.19 µM) | 8 µg/mL (≈ 8.39 µM) | > 64 µg/mL | 10 nM | 13 nM | 27000 nM | – | – | – | – | – | – | – | – | – | – | – | –
7 | CC[C@H]1OC(=O)[C@H](C)[C@@H](O[C@H]2C[C@@](C)(OC)[C@@H](O)[C@H](C)O2)[C@H](C)[C@@H](O[C@@H]2O[C@H](C)C[C@H](N(C)CCCNc3ccnc4cc(Cl)ccc34)[C@H]2O)[C@](C)(O)C[C@@H](C)CN(C)[C@H](C)[C@@H](O)[C@]1(C)O | > 64 µg/mL | 8 µg/mL (≈ 8.39 µM) | 16 µg/mL (≈ 16.8 µM) | 1 µg/mL (≈ 1.05 µM) | > 64 µg/mL | – | – | 3000 nM | – | – | – | – | – | – | – | – | – | – | – | –
8 | CC[C@H]1OC(=O)[C@H](C)[C@@H](O[C@H]2C[C@@](C)(OC)[C@@H](O)[C@H](C)O2)[C@H](C)[C@@H](O[C@@H]2O[C@H](C)C[C@H](N(C)Cc3cn(CCCNc4ccnc5cc(Cl)ccc45)nn3)[C@H]2O)[C@](C)(O)C[C@@H](C)CN(C)[C@H](C)[C@@H](O)[C@]1(C)O | 16 µg/mL (≈ 15.5 µM) | 0.5 µg/mL (≈ 0.483 µM) | 0.5 µg/mL (≈ 0.483 µM) | 2 µg/mL (≈ 1.93 µM) | > 64 µg/mL | – | – | – | – | – | – | – | – | – | – | – | – | – | – | –
